What all share (type): physicochemical
Data set [1] is described as follows: Visual solubility in simulated stomach conditions (0.155 M HCl with NaCl, 37° C.). As for the experimental part:
Bioavailability of the cannabinoid ultrafine nanoparticles obtained as described in Example 4 was assessed by visually evaluating the solubility of the fine nanoparticles in simulated stomach conditions. 0.5 g of NaCl was added to a 0.155 M solution of HCl in water to replicate stomach acidic conditions. 10 mg of the fine nanoparticles, 10 mg of the isolates in crystalline form, and 10 mg of the distillates were each placed in vials containing 10 ml of the acidic solution and incubated for 10 hours at 37° C. At the end of the 10-hour period, only minimal solubility of the preparations was observed. Additional 10 ml of the acidic solution were added, and the mixtures were incubated for 10 more hours at 37° C. At the end of the 20-hour period, the cannabinoid nanoparticles dissolved in the acidic solution.

The nature of data set [2]: Relative bioavailability test: HPLC-UV of CBD concentration in water. To be noted: after 32 hours elapsed time. As for the experimental part: Relative bioavailability tests of the cannabinoid ultrafine nanoparticles obtained as described in Example 4 (test samples) as compared to cannabinoid isolates in water (control samples) were performed using a high performance liquid chromatography (HPLC) separator equipped with a UV detector to determine the concentration of CBD in each sample. Control samples were prepared by filtering 1 ml of each sample through a 0.45 μm filter into a 2 ml HPLC vial and 1 ml of methanol (MeOH) was added to each sample vial. HPLC mobile phase was comprised of 65% acetonitrile and 35% water. A flow rate of 1 ml per minute led to the elution of CBD after approximately 4.5 minutes.
A percentage area was measured after 32 hours elapsed time, which represents the amount of CBD in each sample relative to the background signal created by the MeOH in each sample.

A short description of data set [3]: Solubility in water.

For the compound `C=C(C)[C@@H]1CCC(C)=C[C@H]1c1c(O)cc(CCCCC)cc1O` [CBD isolate, cannabidiol], in data set [1] (10 mg in 20 ml, 20 hours at 37° C.), the “solubility in acidic solution” value is on record as “complete insolubility”. Besides, in data set [1] (acidic solvent resembling stomach conditions), the “solubility in acid (visual)” value is “insoluble”. In data set [2], the “percentage area (amount of CBD relative to MeOH background)” value amounted to 0.7706%. Also, the “solubility in water (visual)” value in data set [3] is reported as “insoluble”.

The record behind these values is patent publication US20240269085A1, “CO[…] COMPOUNDS AND PRODUCTION THEREOF” (Esolate Ltd, priority 2019, published 2024).
